Test results: ChEMBL document CHEMBL1134488, “Potent reversible inhibitors of the protein tyrosine phosphatase CD45” (J Med Chem, 2001)
Where a SMILES comes first, the peptide text is derived from it. The star is where a group is joined. Phenanthrenequinone2carbonyl = O=C1C(=O)c2cc(C(=O)*)ccc2-c2ccccc21; X1 = O=C1C(=O)c2cc(N*)ccc2-c2ccccc21

Key:
T-cell [1] = assay: In vitro inhibition of human T-cell proliferation; assay type: functional, cell-based
T-cell [2] = assay: Cytotoxicity measured against human T-cells; assay type: functional

| Compound | IC50 (T-cell [1]) | CC50 (T-cell [2]) |
| --- | --- | --- |
| O=C1C(=O)c2ncccc2-c2ccccc21 | 0.4 µM | 7 µM |
| O=C1C=C(c2cc(Cl)cc(Cl)c2)c2ccccc2C1=O | 0.3 µM | 5.5 µM |
| O=C1C=C(c2c(-c3ccccc3)[nH]c3ccccc23)c2ccccc2C1=O | 2.2 µM | 16 µM |
| CCOc1ccccc1-c1ccc2c(c1)C(=O)C(=O)c1ccccc1-2 | 0.7 µM | > 30 µM |
| O=C1C(=O)c2cc([N+](=O)[O-])ccc2-c2ccc([N+](=O)[O-])cc21 | 0.5 µM | 8 µM |
| O=C(O)c1ccc2c(c1)C(=O)C(=O)c1ccccc1-2 | > 30 µM | > 30 µM |
| O=C1C=C(c2ccccc2Cl)c2ccccc2C1=O | 0.3 µM | 12.4 µM |
| O=C(O)CNC(=O)c1ccc2c(c1)-c1ccccc1C(=O)C2=O | 6.5 µM | > 30 µM |
| O=C(O)c1ccc2c(c1)-c1ccccc1C(=O)C2=O | > 30 µM |  |
| O=C1C(=O)c2cc([N+](=O)[O-])ccc2-c2ccccc21 | 1.6 µM | 10 µM |
| Nc1cccc2c1-c1ccccc1C(=O)C2=O | 0.2 µM | 9 µM |
| Cn1cc(C2=CC(=O)C(=O)c3ccccc32)c2ccccc21 | 1.5 µM | > 30 µM |
| O=C1C(=O)c2cccc([N+](=O)[O-])c2-c2ccccc21 |  | 10 µM |
| COC(=O)CCCC(=O)Nc1ccc2c(c1)-c1ccccc1C(=O)C2=O | 1.6 µM | 9 µM |
| O=C1C=C(c2cccc([N+](=O)[O-])c2)c2ccccc2C1=O | 0.4 µM | 4 µM |
| CCOC1=CC(=O)C(=O)c2ccccc21 | > 30 µM | > 30 µM |
| O=C1C(=O)c2ccc([N+](=O)[O-])cc2-c2ccccc21 | 0.2 µM | 2.8 µM |
| C=CCOC1=CC(=O)C(=O)c2ccccc21 | > 30 µM | > 30 µM |
| O=C1C=Cc2ccc(O)cc2C1=O | > 30 µM | > 30 µM |
| CCCC(=O)Nc1ccc2c(c1)C(=O)C(=O)c1ccccc1-2 | 1.1 µM | 8.2 µM |
| O=C1C(=O)c2ccc(NC(=O)c3ccccc3C(F)(F)F)cc2-c2ccccc21 |  | 14 µM |
| O=C1C=C(c2ccccc2)c2ccccc2C1=O | 0.2 µM | 12 µM |
| O=C1C=Cc2cc(C(=O)c3ccccc3)ccc2C1=O | 11 µM | > 30 µM |
| O=C1C(=O)c2cc(-c3ccsc3)ccc2-c2ccccc21 | 1.7 µM | 7.3 µM |

| Compound | IC50 (T-cell [1]) | CC50 (T-cell [2]) |
| --- | --- | --- |
| COC(=O)c1ccc2c(c1)C=CC(=O)C2=O | 7.1 µM | > 30 µM |
| COC(=O)c1cccc2c1C=CC(=O)C2=O |  | > 30 µM |
| COC(=O)CCC(=O)Nc1ccc2c(c1)-c1ccccc1C(=O)C2=O |  | 18 µM |
| Nc1ccc2c(c1)-c1ccccc1C(=O)C2=O |  | 17 µM |
| O=C1C(=O)c2cc(-c3ccc4c(c3)OCO4)ccc2-c2ccccc21 | 1.7 µM | 5 µM |
| Nc1cccc2c1C(=O)C(=O)c1ccccc1-2 | 7.8 µM | 9.6 µM |
| O=C1C=C(Br)c2ccccc2C1=O | 22 µM | > 30 µM |
| O=C1C(=O)c2ccsc2-c2ccccc21 |  | 3.5 µM |
| Cc1ccc(S(=O)(=O)Nc2ccc3c(c2)C(=O)C(=O)c2ccccc2-3)cc1 | 6.4 µM | > 30 µM |
| Cc1ccc(S(=O)(=O)N(c2ccc3c(c2)C(=O)C(=O)c2ccccc2-3)S(=O)(=O)c2ccc(C)cc2)cc1 |  | 5.3 µM |
| O=C1C=C(c2ccc(Br)cc2)c2ccccc2C1=O | 0.2 µM | 3 µM |
| CC(=O)N[C@@H](C)C(=O)N[C@H](C(=O)N[C@@H](CCC(=O)O)C(=O)NCC(=O)N[C@@H](CCC(N)=O)C(=O)N[C@@H](CC(=O)Nc1ccc2c(c1)C(=O)C(=O)c1ccccc1-2)C(=O)O)[C@@H](C)O (Ac-ATEGQD(X1)-OH) | 21.4 µM |  |
| CC(=O)N[C@@H](Cc1ccccc1)C(=O)N[C@H](C(=O)N[C@@H](C)C(=O)N[C@H](C(=O)N[C@@H](CCC(=O)O)C(=O)NCC(=O)N[C@@H](CCC(N)=O)C(=O)N[C@@H](CC(=O)Nc1ccc2c(c1)C(=O)C(=O)c1ccccc1-2)C(=O)O)[C@@H](C)O)[C@@H](C)O (Ac-FTATEGQD(X1)-OH) | > 30 µM |  |
| CC(=O)N[C@H](C(=O)N[C@@H](C)C(=O)N[C@H](C(=O)N[C@@H](CCC(=O)O)C(=O)NCC(=O)N[C@@H](CCC(N)=O)C(=O)N[C@@H](CC(=O)Nc1ccc2c(c1)C(=O)C(=O)c1ccccc1-2)C(=O)O)[C@@H](C)O)[C@@H](C)O (Ac-TATEGQD(X1)-OH) | 23 µM |  |
| O=C(O)CC[C@H](NC(=O)c1ccc2c(c1)C(=O)C(=O)c1ccccc1-2)C(=O)N[C@@H](CCC(=O)O)C(=O)N1CCC[C@H]1C(=O)N[C@@H](CCC(=O)O)C(=O)NCC(=O)O (Phenanthrenequinone2carbonyl-EEPEG-OH) | 14.2 µM | > 30 µM |
| N=C(N)NCCC[C@H](NC(=O)[C@@H]1CCCN1C(=O)[C@H](CCC(=O)O)NC(=O)[C@H](CCC(=O)O)NC(=O)c1ccc2c(c1)C(=O)C(=O)c1ccccc1-2)C(=O)NCC(=O)O (Phenanthrenequinone2carbonyl-EEPRG-OH) | 16 µM | > 30 µM |
| O=C(O)CC[C@H](NC(=O)c1ccc2c(c1)C(=O)C(=O)c1ccccc1-2)C(=O)NCC(=O)N1CCC[C@H]1C(=O)N[C@@H](CCC(=O)O)C(=O)NCC(=O)O (Phenanthrenequinone2carbonyl-EGPEG-OH) | 8.8 µM | > 30 µM |
| N=C(N)NCCC[C@H](NC(=O)[C@@H]1CCCN1C(=O)CNC(=O)[C@H](CCC(=O)O)NC(=O)c1ccc2c(c1)C(=O)C(=O)c1ccccc1-2)C(=O)NCC(=O)O (Phenanthrenequinone2carbonyl-EGPRG-OH) | 23 µM | > 30 µM |
| N=C(N)NCCC[C@H](NC(=O)[C@H](CCC(=O)O)NC(=O)c1ccc2c(c1)C(=O)C(=O)c1ccccc1-2)C(=O)N1CCC[C@H]1C(=O)N[C@@H](CCC(=O)O)C(=O)NCC(=O)O (Phenanthrenequinone2carbonyl-ERPEG-OH) | 3 µM | > 30 µM |
| N=C(N)NCCC[C@H](NC(=O)[C@@H]1CCCN1C(=O)[C@H](CCCNC(=N)N)NC(=O)[C@H](CCC(=O)O)NC(=O)c1ccc2c(c1)C(=O)C(=O)c1ccccc1-2)C(=O)NCC(=O)O (Phenanthrenequinone2carbonyl-ERPRG-OH) | 19 µM | > 30 µM |
| O=C(O)CC[C@H](NC(=O)[C@@H]1CCCN1C(=O)[C@H](CCC(=O)O)NC(=O)CNC(=O)c1ccc2c(c1)C(=O)C(=O)c1ccccc1-2)C(=O)NCC(=O)O (Phenanthrenequinone2carbonyl-GEPEG-OH) | 9 µM | > 30 µM |
| N=C(N)NCCC[C@H](NC(=O)[C@@H]1CCCN1C(=O)[C@H](CCC(=O)O)NC(=O)CNC(=O)c1ccc2c(c1)C(=O)C(=O)c1ccccc1-2)C(=O)NCC(=O)O (Phenanthrenequinone2carbonyl-GEPRG-OH) | 20 µM | > 30 µM |
| O=C(O)CC[C@H](NC(=O)[C@@H]1CCCN1C(=O)CNC(=O)CNC(=O)c1ccc2c(c1)C(=O)C(=O)c1ccccc1-2)C(=O)NCC(=O)O (Phenanthrenequinone2carbonyl-GGPEG-OH) | 19.3 µM | > 30 µM |
| N=C(N)NCCC[C@H](NC(=O)[C@@H]1CCCN1C(=O)CNC(=O)CNC(=O)c1ccc2c(c1)C(=O)C(=O)c1ccccc1-2)C(=O)NCC(=O)O (Phenanthrenequinone2carbonyl-GGPRG-OH) | 16 µM | > 30 µM |
